{"source": "patent US20260297060A1", "about": "“COMPOUNDS FOR THE DEGRADATION OF MUTANT BRAF” (C4 THERAPEUTICS, INC., priority 2023, published 2026)", "key": {"[1]": {"tested_on": "A375 human melanoma xenografts", "test": "In vivo therapeutic efficacy in A375 human melanoma xenografts (tumor volume, T/C, TGI), Example 14", "design": "species or system human tumor in female BALB/c nude mice", "details": "for Tumor volume: 100 mg/kg p.o. QD x 21 days", "experimental": "Agents were tested in the A375 human melanoma xenografts. Compound 26 and Compound 141 were administered to BALB/c nude mice bearing A375 tumors from PG-DO and dosed via PO twice a day (BID) or third a day (TIP) or dosed P daily (QD) from PG-D. Dabrafenib was administered to BALB/c nude mice bearing A375 tumors from PG-D1 and dosed via P daily (QD). Compound 26 was dosed at 1.5 mg/kg (QD), 2 mg/kg (TID), 3 mg/kg (BID), 6 mg/kg (QD) and 10 mg/kg (BID) for 21 days. Compound 141 was dosed at 0.75 mg/kg (BID), 1 mg/kg (TID), 1.5 mg/kg (BID), 3 mg/kg (QD) and 5 mg/kg (BID) for 21 days. Dabrafenib was dosed at 100 mg/kg for 21 days. This study was non-GLP.\nOne hundred and thirty-eight female BALB/c nude Mus Musculus mice procured from Shanghai Lingchang Biological Science and Technology Co., LTD between the ages of six to eight weeks and with body weight between eighteen and twenty-two grams were used for the study. A spare mouse was also procured.\nThe A375 tumor cells were maintained in vitro in DMEM medium supplemented with 10% fetal bovine serum and 1% Penicillin-Streptomycin at 37° C. in an atmosphere of 5% CO2 in air. The tumor cells were routinely sub-cultured twice weekly. The cells growing in an exponential growth phase were harvested and counted for tumor inoculation.\nEach mouse was inoculated subcutaneously at the right flank with A375 cells (5×10^6) in 0.2 mL of PBS supplemented with Matrigel (PBS: Matrigel=1:1) for tumor development. Animals were grouped for efficacy study on day 15 after tumor inoculation when the average tumor volume reached 220 mm^3. The test articles administration and the animal numbers in each group are shown in the above experimental Table 75.\nAt the time of routine monitoring, the animals were checked daily for any effects of tumor growth and treatments on normal behavior such as mobility, food and water consumption (by looking only), body weight gain/loss (body weights were measured twice weekly), eye/hair matting and any other abnormal effect as stated in the protocol. Death and observed clinical signs were recorded on the basis of the numbers of animals within each subset.\nPrior to the onset of drug treatment, mice were measured for tumor size in two dimensions using a caliper, and the tumor volume (mm^3) was calculated using formula V=0.5 a×b^2 where a and b are the long and short diameters of the tumor in mm, respectively. Mice were randomized into different treatment groups based on the tumor volume.\nThe major endpoint was to see if the tumor growth could be delayed or mice could be cured. The tumor size was then used for calculations of T/C value. The T/C value (in percent) is an indication of antitumor effectiveness; T and C are the mean volumes of the treated and control groups, respectively on specified day.\nTGI was calculated for each group using the formula: TGI (%)=[1−(Ti−T0)/(Ci−C0)]×100; Ti is the average tumor volume of a treatment group on a given day, T0 is the average tumor volume of the treatment group on the day of treatment start, Ci is the average tumor volume of the vehicle control group on the same day with Ti, and C0 is the average tumor volume of the vehicle group on the day of treatment start.\nA one-way ANOVA followed by Dunnett's multiple comparison test was performed to compare tumor volume among vehicle group (Group 1) and treatment groups (Group 2-Group 12). All data were analyzed using GraphPad Prism, ns indicates p>0.05, * indicates p<0.05, ** indicates p<0.01, *** indicates p<0.001 and **** indicates p<0.0001.\nTumor growth inhibition of Compound 26, Compound 141 and dabrafenib in the treatment of female BALB/c nude mice bearing A375 xenografts was calculated based on tumor volume measured on […]. TGI and T/C were calculated respectively and the data are detailed in Table 82."}, "[2]": {"test": "Example 8 pharmacokinetics assay for efficacy study (plasma, liver)", "format": "in vivo, BALB/c nude mice", "details": "mouse, po, 35 mg/kg, p.o., QD × 21 days", "experimental": "For efficacy study, agents were tested in the A375 human melanoma xenografts model. Compound 8, Compound 26, and Compound 38 were administered to BALB/c nude mice bearing A375 xenografts from day 0 and dosed p.o. twice per day (BID). Compound 8 and Compound 26 were dosed at 10 mg/kg for 21 days. Compound 38 was dosed at 10 mg/kg for 10 days. The known BRAF inhibitor encorafenib was used as a positive control. encorafenib was administered from day 1 and dosed p.o. daily (QD) for 21 days and dosed at 35 mg/kg.\nThe plasma samples were collected at predetermined time points for PK analysis. For non-termination plasma collection, blood samples were collected into the 1.5 mL Eppendorf tubes containing 3 μL of 0.5 M EDTA-K2. For termination plasma collection, the mice were euthanized at predetermined time points post the treatment and the blood samples were collected into the 1.5 mL Eppendorf tubes containing 15 μL of 0.5 M EDTA-K2. And then the anticoagulant blood samples were centrifuged at 2,500 g at 4° C. for 15 minutes. The plasma samples were separated into 2 aliquots. The 1st was used for PK analysis, and the 2nd served as backup. The samples were stored at −80° C. before bioanalysis.\nLiver samples were collected at predetermined time points for PK analysis. The left lobe of the liver was dissected out and split into 2 parts. The 1st part was used for PK analysis and the 2nd part served as the backup for the study. The samples were transferred into pre-labeled tubes and quickly froze in liquid nitrogen within 2 minutes after dissection. The samples were stored at −80° C. before bioanalysis.\nThe harvested plasma and liver samples were processed for pharmacokinetics analysis by LC-MS/MS with a concentration range of 2.0~2000 ng/mL for encorafenib in plasma and liver homogenate, 10.0-10,000 ng/mL for Compound 8 and Compound 38 in plasma and liver homogenate, 20.0~20,000 ng/mL for Compound 26 in plasma and liver homogenate."}, "[3]": {"details": "100 mg/kg, p.o., QD × 21 days, PG-D21"}}, "note": "Read-outs that look alike come from different tables or passages of the source."}
{"smiles": "CC(C)(C)c1nc(-c2cccc(NS(=O)(=O)c3c(F)cccc3F)c2F)c(-c2ccnc(N)n2)s1", "note": "[Dabrafenib, dabrafenib, reference compound]", "values": [{"measurement": "Tumor volume", "setting": "[1]; day 0, mean ± SEM", "result": "220 ± 15", "unit": "mm^3"}, {"measurement": "Tumor volume", "setting": "[1]; day 4, mean ± SEM", "result": "367 ± 24", "unit": "mm^3"}, {"measurement": "Tumor volume", "setting": "[1]; day 7, mean ± SEM", "result": "421 ± 28", "unit": "mm^3"}, {"measurement": "Tumor volume", "setting": "[1]; day 11, mean ± SEM", "result": "560 ± 38", "unit": "mm^3"}, {"measurement": "Tumor volume", "setting": "[1]; day 14, mean ± SEM", "result": "756 ± 54", "unit": "mm^3"}, {"measurement": "Tumor volume", "setting": "[1]; day 18, mean ± SEM", "result": "1031 ± 79", "unit": "mm^3"}, {"measurement": "Tumor volume", "setting": "[1]; day 21, mean ± SEM", "result": "1095 ± 86", "unit": "mm^3"}, {"measurement": "Tumor volume", "setting": "[1]; day 25 (dosing-free regrowth), mean ± SEM", "result": "1007 ± 137", "unit": "mm^3"}, {"measurement": "Tumor volume", "setting": "[1]; day 28 (dosing-free regrowth), mean ± SEM", "result": "1366 ± 209", "unit": "mm^3"}, {"measurement": "Tumor volume", "setting": "[1]; day 32 (dosing-free regrowth), mean ± SEM", "result": "1679 ± 323", "unit": "mm^3"}, {"measurement": "Tumor volume", "setting": "[1]; day 35 (dosing-free regrowth), mean ± SEM", "result": "1711 ± 245", "unit": "mm^3"}, {"measurement": "Tumor volume", "setting": "[1]; day 39 (dosing-free regrowth), mean ± SEM", "result": "2116 ± 279", "unit": "mm^3"}, {"measurement": "Tumor volume", "setting": "[1]; day 42 (dosing-free regrowth), mean ± SEM", "result": "2634 ± 337", "unit": "mm^3"}, {"measurement": "Tumor volume", "setting": "[1]; day 46 (dosing-free regrowth), mean ± SEM", "result": "2535 ± 321", "unit": "mm^3"}, {"measurement": "Tumor volume", "setting": "[1]; day 49 (dosing-free regrowth), mean ± SEM", "result": "3163 ± 478", "unit": "mm^3"}, {"measurement": "Tumor volume", "setting": "[1]; day 53 (dosing-free regrowth)", "result": 3001, "unit": "mm^3"}, {"measurement": "Tumor Size on PG-D21 (Mean ± SEM)", "setting": "[1]; 100 mg/kg p.o. QD × 21 days", "result": "1095 ± 86", "unit": "mm^3"}, {"measurement": "T/C", "setting": "[1]; [3]", "result": 58.1, "unit": "%"}, {"measurement": "TGI", "setting": "[1]; [3]", "result": 47.4, "unit": "%"}]}
{"smiles": "COC(=O)N[C@@H](C)CNc1nccc(-c2cn(C(C)C)nc2-c2cc(Cl)cc(NS(C)(=O)=O)c2F)n1", "note": "[Encorafenib, encorafenib, reference compound]", "values": [{"measurement": "concentration at 6 h", "setting": "[2]; liver, read-out: Concentration in Liver (mean ± SEM)", "result": "186 ± 87.2", "unit": "ng/g"}, {"measurement": "concentration at 6 h", "setting": "[2]; plasma, read-out: Concentration in Plasma (mean ± SEM)", "result": "0.336 ± 0.15", "unit": "µg/mL"}]}
